According to patent US8222219B2, “Glucopyranoside compound” (Mitsubishi Tanabe Pharma Corporation, priority 2003, dated 2012):

The compounds below were run against T1, human SGLT2 (Homo sapiens, UniProt P31639) (assay: Assay for SGLT2 inhibition (14C-AMG uptake in CHOK1 cells expressing human SGLT2)). Conditions: CHOK1 cells expressing human SGLT2; 14C-AMG uptake 0.5 mM, 2 hours at 37° C.; read-out: IC50.
T1 construct: expressed in transfected cells; host or cells: CHOK1 (CHO-K1) cells, kept under Geneticin selection
T1 sequence (P31639 1-672): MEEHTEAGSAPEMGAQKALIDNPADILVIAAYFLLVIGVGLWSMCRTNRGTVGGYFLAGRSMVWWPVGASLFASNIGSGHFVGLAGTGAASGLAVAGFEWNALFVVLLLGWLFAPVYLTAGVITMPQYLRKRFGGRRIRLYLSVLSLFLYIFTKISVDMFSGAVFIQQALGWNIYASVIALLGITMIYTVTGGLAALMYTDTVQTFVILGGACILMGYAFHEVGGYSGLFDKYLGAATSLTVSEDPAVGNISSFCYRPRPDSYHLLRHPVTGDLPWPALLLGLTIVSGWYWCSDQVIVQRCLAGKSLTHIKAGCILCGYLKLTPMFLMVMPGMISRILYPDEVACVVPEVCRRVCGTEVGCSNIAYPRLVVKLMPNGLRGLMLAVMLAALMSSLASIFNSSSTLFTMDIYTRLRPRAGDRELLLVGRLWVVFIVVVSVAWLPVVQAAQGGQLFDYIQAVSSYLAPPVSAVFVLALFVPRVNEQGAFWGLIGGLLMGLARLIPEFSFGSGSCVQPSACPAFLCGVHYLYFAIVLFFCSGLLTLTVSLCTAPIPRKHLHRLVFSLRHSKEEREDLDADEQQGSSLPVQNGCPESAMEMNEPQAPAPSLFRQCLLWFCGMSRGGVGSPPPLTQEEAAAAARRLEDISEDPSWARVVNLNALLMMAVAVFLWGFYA
Format: cell-based
Experimental: 1. Assay for SGLT2 Inhibition
Compounds described in the above examples were used for the SGLT2 inhibition assay.
CHOK1 cells expressing human SGLT2 were seeded in 24-well plates at a density of 400,000 cells/well in F-12 nutrient mixture (Ham's F-12) containing 10% fetal bovine serum, 400 μg/ml Geneticin, 50 units/ml sodium penicillin G (Gibco-BRL) and 50 μg/ml streptomycin sulfate. […] Test compounds were dissolved in DMSO. The final concentration of DMSO was 0.5%. The transport reaction was initiated by addition of 50 μl [^14C]-methyl-α-D-glucopyranoside (^14C-AMG) solution (final concentration, 0.5 mM). After incubation for 2 hours at 37° C., the uptake was stopped by aspiration of the incubation mixture, the cells were washed three times with ice-cold PBS. Then, cells were solubilized with 0.3 N NaOH and aliquots were taken for determination of radioactivity by a liquid scintillation counter. Nonspecific AMG uptake was defined as that which occurred in the presence of 100 μM of phlorizin, a specific inhibitor of sodium-dependent glucose cotransporter. Specific uptake was normalized for the protein concentrations measured by the method of Bradford.
An IC50 of 5.9 nM was found for `Cc1ccc([C@@H]2O[C@H](CO)[C@@H](O)[C@H](O)[C@H]2O)cc1Cc1cc2ccc(OC(F)F)cc2s1` [Example 224] in this work. An IC50 of 1.5 nM was found for `Cc1ccc([C@@H]2O[C@H](CO)[C@@H](O)[C@H](O)[C@H]2O)cc1Cc1ccc(-c2cccc(C#N)n2)s1` [Example 225] in this work. An IC50 of 3.2 nM was found for `Cc1ccc([C@@H]2O[C@H](CO)[C@@H](O)[C@H](O)[C@H]2O)cc1Cc1ccc(-n2cccn2)s1` [Example 227] in this work. An IC50 of 3.6 nM was found for `CCOc1ccc2cc(Cc3cc([C@@H]4O[C@H](CO)[C@@H](O)[C@H](O)[C@H]4O)ccc3C)sc2c1` [Example 228] in this work. An IC50 of 2.7 nM was found for `COc1ccc2sc(Cc3cc([C@@H]4O[C@H](CO)[C@@H](O)[C@H](O)[C@H]4O)ccc3C)cc2c1` [Example 229] in this work. An IC50 of 4 nM was found for `Cc1ccc([C@@H]2O[C@H](CO)[C@@H](O)[C@H](O)[C@H]2O)cc1Cc1cc2cc(OCCF)ccc2s1` [Example 230] in this work. An IC50 of 3.5 nM was found for `CCOc1ccc2sc(Cc3cc([C@@H]4O[C@H](CO)[C@@H](O)[C@H](O)[C@H]4O)ccc3C)cc2c1` [Example 231] in this work. An IC50 of 4 nM was found for `CCOc1ccc(-c2ccc(Cc3cc([C@@H]4O[C@H](CO)[C@@H](O)[C@H](O)[C@H]4O)ccc3C)s2)cc1` [Example 232] in this work. An IC50 of 2.6 nM was found for `Cc1ccc([C@@H]2O[C@H](CO)[C@@H](O)[C@H](O)[C@H]2O)cc1Cc1cc2ccc(OCCF)cc2s1` [Example 235] in this work. An IC50 of 2.8 nM was found for `Cc1ccc([C@@H]2O[C@H](CO)[C@@H](O)[C@H](O)[C@H]2O)cc1Cc1ccc(-c2ccc(OC(F)F)cc2)s1` [Example 237] in this work. An IC50 of 1.6 nM was found for `COc1ccc2cc(Cc3cc([C@@H]4O[C@H](CO)[C@@H](O)[C@H](O)[C@H]4O)ccc3C)sc2c1` [Example 238] in this work. An IC50 of 1.2 nM was found for `OC[C@H]1O[C@@H](c2ccc(Cl)c(Cc3ccc(-c4ncco4)s3)c2)[C@H](O)[C@@H](O)[C@@H]1O` [Example 240] in this work. An IC50 of 1 nM was found for `Cc1ccc([C@@H]2O[C@H](CO)[C@@H](O)[C@H](O)[C@H]2O)cc1Cc1ccc(-c2ncco2)s1` [Example 241] in this work. An IC50 of 1.2 nM was found for `Cc1csc(-c2ccc(Cc3cc([C@@H]4O[C@H](CO)[C@@H](O)[C@H](O)[C@H]4O)ccc3Cl)s2)n1` [Example 244] in this work. An IC50 of 6.4 nM was found for `Cc1cc(-c2ccc(Cc3cc([C@@H]4O[C@H](CO)[C@@H](O)[C@H](O)[C@H]4O)ccc3C)s2)on1` [Example 246] in this work. An IC50 of 5.1 nM was found for `OC[C@H]1O[C@@H](c2ccc(F)c(Cc3ccc(-c4cccc(F)n4)s3)c2)[C@H](O)[C@@H](O)[C@@H]1O` [Example 248] in this work. An IC50 of 4.3 nM was found for `O=Cc1ccc(-c2ccc(Cc3cc([C@@H]4O[C@H](CO)[C@@H](O)[C@H](O)[C@H]4O)ccc3Cl)s2)cc1` [Example 249, 1-(β-D-Glucopyranosyl)-4-chloro-3-(5-(4-formylphenyl)-2-thienylmethyl)benzene] in this work. An IC50 of 4.2 nM was found for `COc1c(Cc2ccc(Cl)s2)cc([C@@H]2O[C@H](CO)[C@@H](O)[C@H](O)[C@H]2O)c2ccccc12` [Example 250, 1-(β-D-Glucopyranosyl)-3-(5-chloro-2-thienylmethyl)-4-methoxynaphthalene] in this work. An IC50 of 1.4 nM was found for `Cc1nc(-c2ccc(Cc3cc([C@@H]4O[C@H](CO)[C@@H](O)[C@H](O)[C@H]4O)ccc3Cl)s2)cs1` [Example 252] in this work. An IC50 of 1.6 nM was found for `Cc1cc(-c2ccc(Cc3cc([C@@H]4O[C@H](CO)[C@@H](O)[C@H](O)[C@H]4O)ccc3Cl)s2)ccn1` [Example 253] in this work. An IC50 of 6.5 nM was found for `OC[C@H]1O[C@@H](c2cc(Cc3ccc(-c4cccc(F)n4)s3)c(F)c3ccccc23)[C@H](O)[C@@H](O)[C@@H]1O` [Example 255] in this work. An IC50 of 3.1 nM was found for `OC[C@H]1O[C@@H](c2ccc(Cl)c(Cc3ccc(-c4ncc(F)s4)s3)c2)[C@H](O)[C@@H](O)[C@@H]1O` [Example 256] in this work. An IC50 of 1.5 nM was found for `OCc1ccc(-c2ccc(Cc3cc([C@@H]4O[C@H](CO)[C@@H](O)[C@H](O)[C@H]4O)ccc3Cl)s2)cc1` [Example 264, 1-(β-D-glucopyranosyl)-4-chloro-3-(5-(4-hydroxymethylphenyl)-2-thienylmethyl)benzene] in this work.
